Patent US20250171438A1 (Agios Pharmaceuticals, Inc., priority 2022, published 2025)

These compounds were tested against T1, human PAH with the R408W mutation (Homo sapiens, UniProt P00439, R408W) (assay: Cell Based Phenylalanine Flux Assay). Details: A375 cells expressing human R408W PAH; 24 hrs compound incubation; 13C-Tyrosine by LC-MS; average where tested multiple times; read-out: AC50.
T1 construct: expressed in transfected cells
T1 sequence (P00439 1-452 R408W): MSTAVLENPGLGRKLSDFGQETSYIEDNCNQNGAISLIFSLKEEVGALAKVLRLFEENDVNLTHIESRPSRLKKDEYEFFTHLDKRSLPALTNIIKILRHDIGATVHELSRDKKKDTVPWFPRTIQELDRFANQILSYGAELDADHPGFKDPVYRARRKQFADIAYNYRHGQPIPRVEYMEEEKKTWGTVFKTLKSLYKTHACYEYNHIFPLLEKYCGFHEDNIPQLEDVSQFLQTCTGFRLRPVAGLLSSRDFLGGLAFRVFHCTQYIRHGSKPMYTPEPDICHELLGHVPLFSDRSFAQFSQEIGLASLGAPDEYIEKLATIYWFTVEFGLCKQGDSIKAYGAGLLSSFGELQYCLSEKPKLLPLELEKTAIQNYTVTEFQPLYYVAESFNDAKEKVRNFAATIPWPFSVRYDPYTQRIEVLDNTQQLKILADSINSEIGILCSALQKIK
Work on `O=C(c1cnc(C2CC2)o1)N1CCc2[nH]cnc2[C@@H]1c1nc2ccccc2s1` [Example 1188, (R)-(4-(benzo[d]thiazol-2-yl)-6,7-dihydro-1H-imidazo[4,5-c]pyridin-5(4H)-yl)(2-cyclopropyloxazol-5-yl)methanone] yielded an AC50 of 1000 to 5000 nM.
`O=C(c1ncc(-c2ccccc2)s1)N1CCc2[nH]cnc2[C@H]1c1nc2ccccc2s1` [Example 1189] showed an AC50 of 1000 to 5000 nM.
`O=C(c1ncc(-c2ccccc2)s1)N1CCc2[nH]cnc2[C@@H]1c1nc2ccccc2s1` [Example 1190, (R)-(4-(benzo[d]thiazol-2-yl)-6,7-dihydro-1H-imidazo[4,5-c]pyridin-5(4H)-yl)(5-phenylthiazol-2-yl)methanone] was tested, and the AC50 was greater than 5000 nM.
`O=C(c1cnn2cc(C3CC3)ccc12)N1CCc2[nH]cnc2[C@H]1c1nc2ccccc2s1` [Example 1191] showed an AC50 of 500 to 1000 nM.
For `O=C(c1cnn2cc(C3CC3)ccc12)N1CCc2[nH]cnc2[C@@H]1c1nc2ccccc2s1` [Example 1192, (R)-(4-(benzo[d]thiazol-2-yl)-6,7-dihydro-1H-imidazo[4,5-c]pyridin-5(4H)-yl)(6-cyclopropylpyrazolo[1,5-a]pyridin-3-yl)methanone], the AC50 was 1000 to 5000 nM.
`O=C(c1cncs1)N1CCc2[nH]cnc2[C@H]1c1nc2cc(F)ccc2s1` [Example 1193, (S)-(4-(5-fluorobenzo[d]thiazol-2-yl)-6,7-dihydro-1H-imidazo[4,5-c]pyridin-5(4H)-yl)(thiazol-5-yl)methanone] showed an AC50 of 1000 to 5000 nM.
Compound `O=C(c1cncs1)N1CCc2[nH]cnc2[C@@H]1c1nc2cc(F)ccc2s1` [Example 1194, (R)-(4-(5-fluorobenzo[d]thiazol-2-yl)-6,7-dihydro-1H-imidazo[4,5-c]pyridin-5(4H)-yl)(thiazol-5-yl)methanone] has an AC50 greater than 5000 nM.
`O=C(c1cnn2ccc(Cl)cc12)N1CCc2[nH]cnc2[C@H]1c1nc2c(F)cccc2s1` [Example 1195] showed an AC50 of less than 500 nM.
`O=C(c1cnn2ccc(Cl)cc12)N1CCc2[nH]cnc2[C@@H]1c1nc2c(F)cccc2s1` [Example 1196, (R)-(5-chloropyrazolo[1,5-a]pyridin-3-yl)(4-(4-fluorobenzo[d]thiazol-2-yl)-6,7-dihydro-1H-imidazo[4,5-c]pyridin-5(4H)-yl)methanone] was tested, and the AC50 was 1000 to 5000 nM.
For `COc1ccn2ncc(C(=O)N3CCc4[nH]cnc4[C@H]3c3nc4c(F)cccc4s3)c2c1` [Example 1197, (S)-(4-(4-fluorobenzo[d]thiazol-2-yl)-6,7-dihydro-1H-imidazo[4,5-c]pyridin-5(4H)-yl)(5-methoxypyrazolo[1,5-a]pyridin-3-yl)methanone], the AC50 was 500 to 1000 nM.
With `COc1ccn2ncc(C(=O)N3CCc4[nH]cnc4[C@@H]3c3nc4c(F)cccc4s3)c2c1` [Example 1198, (R)-(4-(4-fluorobenzo[d]thiazol-2-yl)-6,7-dihydro-1H-imidazo[4,5-c]pyridin-5(4H)-yl)(5-methoxypyrazolo[1,5-a]pyridin-3-yl)methanone] the AC50 was 1000 to 5000 nM.
For `O=C(c1nccs1)N1CCc2[nH]cnc2[C@@H]1c1nc2cccc(Br)c2s1` [Example 1199, (R)-(4-(7-bromobenzo[d]thiazol-2-yl)-6,7-dihydro-1H-imidazo[4,5-c]pyridin-5(4H)-yl)(thiazol-2-yl)methanone], the AC50 was 1000 to 5000 nM.
Compound `O=C(c1nccs1)N1CCc2[nH]cnc2[C@H]1c1nc2cccc(Br)c2s1` [Example 1200, (S)-(4-(7-bromobenzo[d]thiazol-2-yl)-6,7-dihydro-1H-imidazo[4,5-c]pyridin-5(4H)-yl)(thiazol-2-yl)methanone] has an AC50 of 500 to 1000 nM.
Work on `O=C(c1nccs1)N1CCc2[nH]cnc2[C@H]1c1nc2c(Cl)cccc2s1` [Example 1201, (S)-(4-(4-chlorobenzo[d]thiazol-2-yl)-6,7-dihydro-1H-imidazo[4,5-c]pyridin-5(4H)-yl)(thiazol-2-yl)methanone] yielded an AC50 of 1000 to 5000 nM.
For `O=C(c1nccs1)N1CCc2[nH]cnc2[C@@H]1c1nc2c(Cl)cccc2s1` [Example 1202, (R)-(4-(4-chlorobenzo[d]thiazol-2-yl)-6,7-dihydro-1H-imidazo[4,5-c]pyridin-5(4H)-yl)(thiazol-2-yl)methanone], the AC50 was 1000 to 5000 nM.
Work on `O=C(c1cnc(-c2ccccc2)s1)N1CCc2[nH]cnc2[C@H]1c1nc2ccccc2s1` [Example 1203] yielded an AC50 of 500 to 1000 nM.
`O=C(c1cnc(-c2ccccc2)s1)N1CCc2[nH]cnc2[C@@H]1c1nc2ccccc2s1` [Example 1204, (R)-(4-(benzo[d]thiazol-2-yl)-6,7-dihydro-1H-imidazo[4,5-c]pyridin-5(4H)-yl)(2-phenylthiazol-5-yl)methanone] gave an AC50 of 1000 to 5000 nM.
`O=C(c1cnc(-c2ccccn2)s1)N1CCc2[nH]cnc2[C@H]1c1nc2ccccc2s1` [Example 1205] was tested, and the AC50 was less than 500 nM.
`O=C(c1cnc(-c2ccccn2)s1)N1CCc2[nH]cnc2[C@@H]1c1nc2ccccc2s1` [Example 1206, (R)-(4-(benzo[d]thiazol-2-yl)-6,7-dihydro-1H-imidazo[4,5-c]pyridin-5(4H)-yl)(2-(pyridin-2-yl)thiazol-5-yl)methanone] was tested, and the AC50 was 1000 to 5000 nM.
`O=C(c1cnc(-c2ccccc2)o1)N1CCc2[nH]cnc2[C@H]1c1nc2ccccc2s1` [Example 1207] gave an AC50 of less than 500 nM.
In the case of `O=C(c1cnc(-c2ccccc2)o1)N1CCc2[nH]cnc2[C@@H]1c1nc2ccccc2s1` [Example 1208, (R)-(4-(benzo[d]thiazol-2-yl)-6,7-dihydro-1H-imidazo[4,5-c]pyridin-5(4H)-yl)(2-phenyloxazol-5-yl)methanone], the AC50 was 1000 to 5000 nM.
Compound `O=C(c1cnn2cc(-c3ccccc3)ccc12)N1CCc2[nH]cnc2[C@H]1c1nc2ccccc2s1` [Example 1209] has an AC50 of 1000 to 5000 nM.
`O=C(c1cnn2cc(-c3ccccc3)ccc12)N1CCc2[nH]cnc2[C@@H]1c1nc2ccccc2s1` [Example 1210, (R)-(4-(benzo[d]thiazol-2-yl)-6,7-dihydro-1H-imidazo[4,5-c]pyridin-5(4H)-yl)(6-phenylpyrazolo[1,5-a]pyridin-3-yl)methanone] showed an AC50 greater than 5000 nM.
`O=C(c1cnn2cc(-c3ccccn3)ccc12)N1CCc2[nH]cnc2[C@H]1c1nc2ccccc2s1` [Example 1211] gave an AC50 of 500 to 1000 nM.
For `O=C(c1cnn2cc(-c3ccccn3)ccc12)N1CCc2[nH]cnc2[C@@H]1c1nc2ccccc2s1` [Example 1212, (R)-(4-(benzo[d]thiazol-2-yl)-6,7-dihydro-1H-imidazo[4,5-c]pyridin-5(4H)-yl)(6-(pyridin-2-yl)pyrazolo[1,5-a]pyridin-3-yl)methanone], the AC50 was greater than 5000 nM.
Work on `Cn1cc(-c2ccc3c(C(=O)N4CCc5[nH]cnc5[C@H]4c4nc5ccccc5s4)cnn3c2)cn1` [Example 1213] yielded an AC50 of less than 500 nM.
`Cn1cc(-c2ccc3c(C(=O)N4CCc5[nH]cnc5[C@@H]4c4nc5ccccc5s4)cnn3c2)cn1` [Example 1214, (R)-(4-(benzo[d]thiazol-2-yl)-6,7-dihydro-1H-imidazo[4,5-c]pyridin-5(4H)-yl)(6-(1-methyl-1H-pyrazol-4-yl)pyrazolo[1,5-a]pyridin-3-yl)methanone] showed an AC50 of 1000 to 5000 nM.
In the case of `O=C(c1cnn2cc(F)ccc12)N1CCc2[nH]cnc2[C@H]1c1nc2c(F)cccc2s1` [Example 1215, (S)-(4-(4-fluorobenzo[d]thiazol-2-yl)-6,7-dihydro-1H-imidazo[4,5-c]pyridin-5(4H)-yl)(6-fluoropyrazolo[1,5-a]pyridin-3-yl)methanone], the AC50 was less than 500 nM.
`O=C(c1cnn2cc(F)ccc12)N1CCc2[nH]cnc2[C@@H]1c1nc2c(F)cccc2s1` [Example 1216, (R)-(4-(4-fluorobenzo[d]thiazol-2-yl)-6,7-dihydro-1H-imidazo[4,5-c]pyridin-5(4H)-yl)(6-fluoropyrazolo[1,5-a]pyridin-3-yl)methanone] was tested, and the AC50 was 1000 to 5000 nM.
Compound `O=C(c1cncs1)N1CCc2[nH]cnc2[C@H]1c1nc2c(F)cccc2s1` [Example 1217, (S)-(4-(4-fluorobenzo[d]thiazol-2-yl)-6,7-dihydro-1H-imidazo[4,5-c]pyridin-5(4H)-yl)(thiazol-5-yl)methanone] has an AC50 of 500 to 1000 nM.
For `O=C(c1cncs1)N1CCc2[nH]cnc2[C@@H]1c1nc2c(F)cccc2s1` [Example 1218, (R)-(4-(4-fluorobenzo[d]thiazol-2-yl)-6,7-dihydro-1H-imidazo[4,5-c]pyridin-5(4H)-yl)(thiazol-5-yl)methanone], the AC50 was 1000 to 5000 nM.
In the case of `O=C(c1ncc(Cl)s1)N1CCc2[nH]cnc2[C@H]1c1nc2c(F)cccc2s1` [Example 1219], the AC50 was less than 500 nM.
Compound `O=C(c1ncc(Cl)s1)N1CCc2[nH]cnc2[C@@H]1c1nc2c(F)cccc2s1` [Example 1220, (R)-(5-chlorothiazol-2-yl)(4-(4-fluorobenzo[d]thiazol-2-yl)-6,7-dihydro-1H-imidazo[4,5-c]pyridin-5(4H)-yl)methanone] has an AC50 of 1000 to 5000 nM.
For `O=C(c1cnn2ccccc12)N1CCc2[nH]cnc2[C@H]1c1nc2c(Cl)cccc2s1` [Example 1221, (S)-(4-(4-chlorobenzo[d]thiazol-2-yl)-6,7-dihydro-1H-imidazo[4,5-c]pyridin-5(4H)-yl)(pyrazolo[1,5-a]pyridin-3-yl)methanone], the AC50 was less than 500 nM.
For `O=C(c1cnn2ccccc12)N1CCc2[nH]cnc2[C@@H]1c1nc2c(Cl)cccc2s1` [Example 1222, (R)-(4-(4-chlorobenzo[d]thiazol-2-yl)-6,7-dihydro-1H-imidazo[4,5-c]pyridin-5(4H)-yl)(pyrazolo[1,5-a]pyridin-3-yl)methanone], the AC50 was 1000 to 5000 nM.
With `O=C(c1cnco1)N1CCc2[nH]cnc2[C@H]1c1nc2c(F)cccc2s1` [Example 1223, (S)-(4-(4-fluorobenzo[d]thiazol-2-yl)-6,7-dihydro-1H-imidazo[4,5-c]pyridin-5(4H)-yl)(oxazol-5-yl)methanone] the AC50 was 500 to 1000 nM.
